Measurements: patent US20100267765A1, “Pharmaceutical Compositions and Methods for CCR5 Antagonists” (priority 2007, published 2010)

Columns and labels:
Assay type in all cases: in vivo, human
[1] = tested on: fasting lipid parameters; assay: MERIT study: fasting lipoprotein profile (total cholesterol, HDL, LDL, triglycerides); conditions: for HDL cholesterol levels on treatment: 48 weeks
Description: (§1) The MERIT study design included a fasting metabolic assessment at baseline and at Weeks 24 and 48 or at early study discontinuation, to evaluate the fasted lipid values in the MERIT study and their potential effect on cardiovascular risk.
(§2) For a 50% smoking rate scenario (which approximates to the smoking rate seen in the DAD Study-Friis-Møller N, et al. N Engl J Med 2003; 349:1993-2003), smoking status (yes/no) was randomly imputed to the study population 500 times, by sampling from a binomial distribution with a probability of success of 0.5. Smoking status was assumed to remain constant for the duration of the study.

[2] = MERIT study: 10-year coronary heart disease risk by Framingham equation; conditions: for Absolute CHD 10-year risk (mean [SD]): Framingham equation, simulated smoking rate 50%, with Combivir
Description: as §2

[3] = tested on: total cholesterol/HDL ratio; assay: MERIT study: total cholesterol/HDL ratio; conditions: with Combivir; ARV-naive R5 HIV-1 patients; P=0.005 between groups
Description: as §1, §2

[4] = tested on: LDL cholesterol; assay: MERIT study: on-treatment fasting LDL cholesterol vs NCEP cutpoints; conditions: with Combivir
Description: as §1, §2

[5] = tested on: HDL cholesterol; assay: Example 1: fasting HDL cholesterol after 24 weeks, OBT plus maraviroc vs OBT plus placebo; conditions: for Numbers of individuals with maximum % increase in HDL cholesterol in range 10 to >30 (sum, within sensitivity range of assay) / Numbers of individuals with maximum % increase in HDL cholesterol relative to baseline 0-5% / Numbers of individuals with maximum % increase in HDL cholesterol relative to baseline 5-<10% / Numbers of individuals with maximum % increase in HDL cholesterol relative to baseline 10-<20% / Numbers of individuals with maximum % increase in HDL cholesterol relative to baseline 20-<30% / Numbers of individuals with maximum % increase in HDL cholesterol relative to baseline <0% / Numbers of individuals with maximum % increase in HDL cholesterol relative to baseline ≧30% / Mean % Change in HDL / Mean % difference from Group1 (placebo) (95% Confidence Interval) in HDL: 24 weeks
Procedure: (§3) The eligible patients were randomised into three groups based on the drug regimens they received.
(§4) Prior to the first dose (Day 1), a fasting assessment was made, in which the following was measured and taken as the baseline measurement: total cholesterol, HDL, LDL, triglycerides, glucose and glycosolated haemoglobin.
HDL as part of a lipid profile was measured by Covance laboratories (Indianapolis, Ind.).
(§5) After 24 weeks of treatment or early termination, the same lipid parameters (in particular HDL levels) were measured again.

[6] = tested on: LDL cholesterol; assay: Example 1: fasting LDL cholesterol after 24 weeks, OBT plus maraviroc vs OBT plus placebo
Procedure: as §3, §4, §5

[7] = tested on: HIV-1 (CXCR4 using viral population); assay: Example 1: HIV-1 RNA viral load reduction after 24 weeks; conditions: for Treatment difference in VL (95% confidence interval) / Mean VL reduction: 24 weeks
Description: The baseline HIV-1 RNA count was taken prior to the first dose (Day 1) and at multiple time points during the 24-week study period.

[8] = patients already above threshold at baseline excluded, P<0.0001
[9] = Group 2: OBT plus maraviroc 150 or 300 mg po QD, N = 63
[10] = Group 2: OBT plus maraviroc QD, n = 45
[11] = Group 3: OBT plus maraviroc 150 or 300 mg po BID, N = 61
[12] = Group 3: OBT plus maraviroc BID, n = 48

O=C1Nc2ccc(Cl)cc2[C@@](C#CC2CC2)(C(F)(F)F)O1 [efavirenz]
Percentage of patients with increases in total cholesterol and LDL cholesterol levels at some point after baseline to ≧130 mg/dL ([1]; efavirenz compared with maraviroc, P<0.0001, FIG. 3b): greater percentage | Median maximum changes from baseline in total cholesterol, HDL cholesterol, LDL cholesterol and triglyceride levels ([1]; efavirenz group compared with maraviroc group, with Combivir, FIG. 1b): significantly greater | HDL cholesterol levels on treatment ([1]; with Combivir): improved | Absolute CHD 10-year risk (mean [SD]) ([2]; Week 24): 3.0% | Absolute CHD 10-year risk (mean [SD]) ([2]; Week 48): 3.3% | Relative risk of having a CHD event within 10 years ([2]; efavirenz group vs maraviroc group at Week 24 and Week 48, smoking rate 50%, FIG. 5b): consistently higher | Median decrease in the total cholesterol/HDL ratio [3]: −0.43 | Number of patients who initiated LDL-lowering therapy during the study [4]: six | Relation of change in LDL cholesterol to baseline LDL cholesterol ([4]; FIG. 2b): directly related | Patients with high on-treatment LDL cholesterol level (≧160 mg/dL) at both Week 24 and Week 48 (%) ([4]; P=0.007): 2.9% | Patients with high on-treatment LDL cholesterol level (≧160 mg/dL) at both Week 24 and Week 48 (n/N) ([4]; P=0.007): 10/343 | Patients who developed LDL cholesterol levels during the study that were ≧160 mg/dL (%) [4, 8]: 9% | Patients who developed LDL cholesterol levels during the study that were ≧160 mg/dL (n/N) [4, 8]: 31/343

(N-{(1S)-3-[3-isopropyl-5-methyl-4H-1,2,4-triazole-4-yl]-exo-8-azabicyclo[3.2.1]oct-8-yl}-1-phenylpropyl)-4,4-difluorocyclohexanecarboxamide) [maraviroc]
HDL cholesterol levels on treatment ([1]; with Combivir): improved | Increase in HDL-C levels following treatment ([5]; 300 mg BID maraviroc, Tables 2a, 3a): clear dose-related increase | Numbers of individuals with maximum % increase in HDL cholesterol in range 10 to >30 (sum, within sensitivity range of assay) [5, 9]: 18 | Numbers of individuals with maximum % increase in HDL cholesterol relative to baseline 0-5% [5, 9]: 6 | Numbers of individuals with maximum % increase in HDL cholesterol relative to baseline 5-<10% [5, 9]: 4 | Numbers of individuals with maximum % increase in HDL cholesterol relative to baseline 10-<20% [5, 9]: 7 | Numbers of individuals with maximum % increase in HDL cholesterol relative to baseline 20-<30% [5, 9]: 2 | Numbers of individuals with maximum % increase in HDL cholesterol relative to baseline <0% [5, 9]: 17 | Numbers of individuals with maximum % increase in HDL cholesterol relative to baseline ≧30% [5, 9]: 9 | Mean % Change in HDL [5, 10]: 13.1% | Mean % difference from Group1 (placebo) (95% Confidence Interval) in HDL [5, 10]: 10.8 (−3.4, 25.0) % | Numbers of individuals with maximum % increase in HDL cholesterol in range 10 to >30 (sum, within sensitivity range of assay) [5, 11]: 28 | Numbers of individuals with maximum % increase in HDL cholesterol relative to baseline 0-5% [5, 11]: 5 | Numbers of individuals with maximum % increase in HDL cholesterol relative to baseline 5-<10% [5, 11]: 1 | Numbers of individuals with maximum % increase in HDL cholesterol relative to baseline 10-<20% [5, 11]: 9 | Numbers of individuals with maximum % increase in HDL cholesterol relative to baseline 20-<30% [5, 11]: 8 | Numbers of individuals with maximum % increase in HDL cholesterol relative to baseline <0% [5, 11]: 14 | Numbers of individuals with maximum % increase in HDL cholesterol relative to baseline ≧30% [5, 11]: 11 | Mean % Change in HDL [5, 12]: 17.4% | Mean % difference from Group1 (placebo) (95% Confidence Interval) in HDL [5, 12]: 15.1 (1.1, 29.1) % | Median decrease in the total cholesterol/HDL ratio [3]: −0.54 | Numbers of individuals with maximum % increase in LDL cholesterol in range 10 to >30 (sum, within sensitivity range of assay) [6, 9]: 20 | Numbers of individuals with maximum % increase in LDL cholesterol relative to baseline 0-5% [6, 9]: 2 | Numbers of individuals with maximum % increase in LDL cholesterol relative to baseline 5-<10% [6, 9]: 5 | Numbers of individuals with maximum % increase in LDL cholesterol relative to baseline 10-<20% [6, 9]: 9 | Numbers of individuals with maximum % increase in LDL cholesterol relative to baseline 20-<30% [6, 9]: 4 | Numbers of individuals with maximum % increase in LDL cholesterol relative to baseline <0% [6, 9]: 11 | Numbers of individuals with maximum % increase in LDL cholesterol relative to baseline ≧30% [6, 9]: 7 | Numbers of individuals with maximum % increase in LDL cholesterol in range 10 to >30 (sum, within sensitivity range of assay) [6, 11]: 18 | Numbers of individuals with maximum % increase in LDL cholesterol relative to baseline 0-5% [6, 11]: 4 | Numbers of individuals with maximum % increase in LDL cholesterol relative to baseline 5-<10% [6, 11]: 1 | Numbers of individuals with maximum % increase in LDL cholesterol relative to baseline 10-<20% [6, 11]: 5 | Numbers of individuals with maximum % increase in LDL cholesterol relative to baseline 20-<30% [6, 11]: 3 | Numbers of individuals with maximum % increase in LDL cholesterol relative to baseline <0% [6, 11]: 18 | Numbers of individuals with maximum % increase in LDL cholesterol relative to baseline ≧30% [6, 11]: 10 | LDL levels after treatment compared with placebo (Group 1) ([6]; Table 1a): no increase over placebo | Treatment difference in VL (95% confidence interval) ([7]; Group 2: OBT plus maraviroc QD vs Group 1 (placebo)): +0.06 log10 copies/mL | Mean VL reduction ([7]; Group 2: OBT plus maraviroc QD): −0.91 log10 copies/mL | Treatment difference in VL (95% confidence interval) ([7]; Group 3: OBT plus maraviroc BID vs Group 1 (placebo)): −0.23 log10 copies/mL | Mean VL reduction ([7]; Group 3: OBT plus maraviroc BID): −1.20 log10 copies/mL | Reduction in viral load (VL) in HIV patients with CXCR4 using viral population ([7]; after 24 weeks, vs Group 1): no statistically significant reduction
